From patent US20240018145A1, “[…]-DEPENDENT EN[…] TREATING OR […]” (priority 2020, published 2024) come the findings set out here.

Like-named read-outs stand apart in the source and are kept apart here.

A word on the EC50: it is the concentration at which the effect is half-maximal. A higher EC50 goes with weaker potency.

This assay has as its system FLU A (PR/8/34). Kind of assay: Flu A Neuraminidase Antiviral Assay. In kind it is cell-based.

`CCCC1CCC2N(C)C(=O)c3c(O)c(=O)ccn3N2C1(C)c1ccccc1` (single isomer, unassigned) [Compound 33D, 7-hydroxy-1,5-dimethyl-1-phenyl-2-propyl-1,2,3,4,4a,5-hexahydrodipyrido[1,2-b:2′,1′-f][1,2,4]triazine-6,8-dione] returned an EC50 of 2.3 nM. Take `CN1C(=O)c2c(O)c(=O)ccn2N2C(c3ccccc3)CCCCC12` (single isomer, unassigned) [Compound 57A, 4-hydroxy-6-methyl-11-phenyl-6a,7,8,9,10,11-hexahydro-3H-pyrido[1′,2′:1,6][1,2,4]triazino[2,3-a]azepine-3,5(6H)-dione]: a half-maximal response (EC50) required 95.5 nM. In the case of `CN1C(=O)c2c(O)c(=O)ccn2N2C1CCCC2(C)c1ccccc1F` (single isomer, unassigned) [Compound 24B, 1-(2-fluorophenyl)-7-hydroxy-1,5-dimethyl-1,2,3,4,4a,5-hexahydrodipyrido[1,2-b:2′,1′-f][1,2,4]triazine-6,8-dione], the EC50 was determined as 1240 nM.

Turning to `CN1C(=O)c2c(O)c(=O)ccn2N2[C@H](c3ccccc3)[C@H](OCC(F)F)CC[C@@H]12` (single isomer, unassigned) [Compound 153B], the midpoint of the response, the EC50, lay at 94.4 nM. On the same count and under the same terms, the result for `CN1C(=O)c2c(O)c(=O)ccn2N2C(c3ccccc3)CCCC12C` (single isomer, unassigned) [Compound 59A, 7-hydroxy-4a,5-dimethyl-1-phenyl-1,2,3,4,4a,5-hexahydrodipyrido[1,2-b:2′,1′-f][1,2,4]triazine-6,8-dione] reads 7280 nM. With `C=CCC1CCC2N(C)C(=O)c3c(O)c(=O)ccn3N2C1c1ccccc1Cl` (stereo not drawn) [Compound 64D, 2-allyl-1-(2-chlorophenyl)-7-hydroxy-5-methyl-1,2,3,4,4a,5-hexahydrodipyrido[1,2-b:2′,1′-f][1,2,4]triazine-6,8-dione], the EC50 amounted to 4.6 nM. Still for that read-out and setting: the result for `CN1C(=O)c2c(O)c(=O)ccn2N2C(c3ccccc3Cl)C(CCO)CCC12` (stereo not drawn) [Compound 66A, 1-(2-chlorophenyl)-7-hydroxy-2-(2-hydroxyethyl)-5-methyl-1,2,3,4,4a,5-hexahydrodipyrido[1,2-b:2′,1′-f][1,2,4]triazine-6,8-dione] reads over 8100 nM; that for `CCCC1CCC2N(CC)C(=O)c3c(O)c(=O)ccn3N2C1c1ccccc1F` (single isomer, unassigned) [Compound 96A, 5-ethyl-1-(2-fluorophenyl)-7-hydroxy-2-propyl-1,2,3,4,4a,5-hexahydrodipyrido[1,2-b:2′,1′-f][1,2,4]triazine-6,8-dione], over 810 nM.

`CN1C(=O)c2c(O)c(=O)ccn2N2C(c3ccccc3)C3CCCC(C3)C12` (single isomer, unassigned) [Compound 11A, 4-hydroxy-6-methyl-12-phenyl-6,6a,7,8,9,10,11,12-octahydro-7,11-methanopyrido[1′,2′:1,6][1,2,4]triazino[2,3-a]azocine-3,5-dione] yielded an EC50 (MDCK, 48 h) of over 8100 nM. For `CN1C(=O)c2c(O)c(=O)ccn2N2C(c3cc(F)ccc3OC(F)F)CCCC12` (single isomer, unassigned) [Compound 17A, 1-(2-(difluoromethoxy)-5-fluorophenyl)-7-hydroxy-5-methyl-1,2,3,4,4a,5-hexahydrodipyrido[1,2-b:2′,1′-f][1,2,4]triazine-6,8-dione], a half-maximal response (EC50) required 3510 nM. As to `CC(C1CCC2N(C)C(=O)c3c(O)c(=O)ccn3N2C1c1ccccc1)C(F)(F)F` (single isomer, unassigned) [Compound 109B, 7-hydroxy-5-methyl-1-phenyl-2-(1,1,1-trifluoropropan-2-yl)-1,2,3,4,4a,5-hexahydrodipyrido[1,2-b:2′,1′-f][1,2,4]triazine-6,8-dione], a half-maximal response (EC50) required 5.4 nM.

Compound `Cc1ccccc1C1C(CC(F)(C(F)(F)F)C(F)(F)F)CCC2N(C)C(=O)c3c(O)c(=O)ccn3N12` (single isomer, unassigned) [Compound 81A, 7-hydroxy-5-methyl-2-(2,3,3,3-tetrafluoro-2-(trifluoromethyl)propyl)-1-(o-tolyl)-1,2,3,4,4a,5-hexahydrodipyrido[1,2-b:2′,1′-f][1,2,4]triazine-6,8-dione] displayed an EC50 of 19.1 nM.
